From paper PMC10191619, “Bilirubin gates the TRPM2 channel as a direct agonist to exacerbate ischemic brain damage” (Neuron, 2023)

Assays:
[1] = target: T1, human TRPM2 (hTRPM2) channel (Homo sapiens, UniProt O94759); test: Single-channel outside-out recordings from HEK-hTRPM2 cells; format: cell-based
T1 construct: expressed in transfected cells; host or cells: HEK293 cells with tetracycline-inducible expression of hTRPM2 (HEK-hTRPM2)
Experimental: (§1) Human embryonic kidney 293 (HEK293) cells with tetracycline-inducible expression of human TRPM2 channel (hTRPM2) were cultured in a mixed medium containing DMEM/ F-12 (Gibco, USA) and 10% fetal bovine serum (Gibco, USA) as well as blasticidin (50 μg/ml, Invivogen, USA) and zeocin (0.4 mg/ml, Invivogen, USA). The expression of hTRPM2 was induced by substituting blasticin and zeocin for tetracycline (1 μg/ml, Sigma, USA) 24-48 hours before use. TRPM2 channel mutants were transiently expressed in HEK293T cells by transfection with using Lipofectamine 3000. Briefly, HEK293T cells were transiently transfected with cDNAs encoding the mutant hTRPM2 channel. The cDNA for GFP was co-transfected as a marker for identification of the transfected cells for electrophysiological experiments 16-24 hours after transfection. All the cells were seeded on 96-well coverslips (3 x 3 mm, WHB) and cultured at 37 °C under a humidified atmosphere containing 5% CO2.
Coronal cortical slices were transferred into the recording chamber and continuously perfused at room temperature with ACSF oxygenated with 95% O2 and 5% CO2. Cortical pyramidal neurons were visualized by an upright microscope (Carl Zeiss) equipped with a CCD monochrome video camera (IR-1000, DAGE-MTI) and identified by their localization in Layer V. Electrophysiology data were sampled (50 kHz) and lowpass filtered (5kHz four-pole Bessel filter) by a MultiClamp 700B dual channel amplifier (Molecular Devices). The patch electrodes were pulled from borosilicate capillary glass (1.5 mm outer diameter; 0.86 mm inner diameter; World Precision Instruments, USA) with a horizontal multi-step micropipette puller (Model, P-1000, Sutter Instrument). […] After forming >1 GΩ resistance seal in cell-attached configuration, we broke the patch membrane and kept the neurons at -64 mV and then performed whole-cell current-clamp recordings. Cells requiring holding current > -150 pA at -60 mV were discarded. The resting membrane potential (Vrest) was tested in I = 0 configuration. […] For whole-cell or single channel recordings from transfected HEK-293T cells, the coverslips were placed in a culture dish (35 × 35 mm, Sorfa) containing HEPES based extracellular solution (ECS) and recorded by patch-clamp technique. […] Each coverslip was recorded only once with different drug exposures. […] The excised patches were voltage-clamped from -80 mV to +80 mV (in 20 mV increasement) to generate the current-voltage (I-V) relationship of single channel currents from which their main conductance was calculated from the slope by linear regression of the mean current amplitude at different potentials. […]

[2] = target: T2, TRPM2-ΔN/ΔC (Homo sapiens, UniProt O94759); test: Whole-cell patch-clamp, truncation mutant; format: cell-based; conditions: bilirubin
T2 construct: expressed in transfected cells; host or cells: HEK293T cells, transient transfection, GFP cDNA co-transfected as a separate marker
Experimental: as §1, with “All the cells were seeded on 96-well coverslips (3 x 3 mm, WHB) and cultured at 37 °C under a humidified atmosphere containing 5% CO2.” left out
(§2) Coronal cortical slices were transferred into the recording chamber and continuously perfused at room temperature with ACSF oxygenated with 95% O2 and 5% CO2. […] For whole-cell or single channel recordings from transfected HEK-293T cells, the coverslips were placed in a culture dish (35 × 35 mm, Sorfa) containing HEPES based extracellular solution (ECS) and recorded by patch-clamp technique. […] Each coverslip was recorded only once with different drug exposures. […]

[3] = tested on: tMCAO Trpm2−/− mice; test: tMCAO ischemia model, infarct volume by TTC staining, Trpm2-/- mice; format: in vivo, mouse; conditions: 24 h after tMCAO
[4] = tested on: cortical neurons in adult Trpm2+/+ brain slices; conditions: bilirubin, 1 h of incubation, n = 6
[5] = tested on: tMCAO Trpm2+/+ mice; test: tMCAO ischemia model, infarct volume by TTC staining, Trpm2+/+ mice; format: in vivo, mouse; conditions: for infarct volume: 24 h after tMCAO
[6] = target: T1, human TRPM2 (hTRPM2) channel; test: Whole-cell patch-clamp of TRPM2 currents (voltage ramps) in HEK-hTRPM2 cells; format: cell-based
Experimental: as §1
Coronal cortical slices were transferred into the recording chamber and continuously perfused at room temperature with ACSF oxygenated with 95% O2 and 5% CO2. Cortical pyramidal neurons were visualized by an upright microscope (Carl Zeiss) equipped with a CCD monochrome video camera (IR-1000, DAGE-MTI) and identified by their localization in Layer V. Electrophysiology data were sampled (50 kHz) and lowpass filtered (5kHz four-pole Bessel filter) by a MultiClamp 700B dual channel amplifier (Molecular Devices). The patch electrodes were pulled from borosilicate capillary glass (1.5 mm outer diameter; 0.86 mm inner diameter; World Precision Instruments, USA) with a horizontal multi-step micropipette puller (Model, P-1000, Sutter Instrument). […] After forming >1 GΩ resistance seal in cell-attached configuration, we broke the patch membrane and kept the neurons at -64 mV and then performed whole-cell current-clamp recordings. Cells requiring holding current > -150 pA at -60 mV were discarded. The resting membrane potential (Vrest) was tested in I = 0 configuration. Intrinsic excitability was tested by 500 ms long current steps between -200 and +400 pA with 50-pA increments in the presence of blockers for AMPA, NMDA, and GABA receptors (APV, 50 μM; NBQX, 10 μM; bicuculine 10 μM, strychnine 1 μM). Only one recording was conducted per brain slice. For whole-cell or single channel recordings from transfected HEK-293T cells, the coverslips were placed in a culture dish (35 × 35 mm, Sorfa) containing HEPES based extracellular solution (ECS) and recorded by patch-clamp technique. Cells were visualized by using the phase-contrast mode of an inverted microscope (TE-2000U; Nikon, Japan) and the patch pipette was positioned on the cells using a motorized micromanipulator (MP-225; Sutter) under the microscope. The transfected cells were voltage-clamped at 0 mV and subjected to voltage ramps from -100 mV to +100 mV (500 ms duration) every 5 s. The basal ramp current (i.e., the trace when the leak current is stable after membrane rupture) before channel activation were used for leak subtraction of all subsequent ramp currents. Each coverslip was recorded only once with different drug exposures. Single-channel recordings were carried out under outside-out configuration, using pipettes with resistance of 6-8 MΩ. The excised patches were voltage-clamped from -80 mV to +80 mV (in 20 mV increasement) to generate the current-voltage (I-V) relationship of single channel currents from which their main conductance was calculated from the slope by linear regression of the mean current amplitude at different potentials. Single-channel recordings of the cortical neurons were performed by adding 4-AP, TEA-Cl, CsCl2 and TTX to block sodium channel, potassium channel and calcium channel.
The cutting solution for brain slices contained the following (in mM): 87 NaCl, 75 sucrose, 2.5 KCl, 10 glucose, 1.25 NaH2PO4, 2 Na-pyruvate, 3 myo-inositol, 0.5 ascorbic acid, 26 NaHCO3,7 MgCl2, and 0.1 CaCl2 (pH 7.4; 290-320 mOsm).

[7] = Serum and CSF TB / UCB measurement after bilirubin injection and tMCAO; format: in vivo, mouse
Experimental: Trpm2^+/+, Trpm2^-/- and D1066A C57BL/6 mice were anesthetized by intraperitoneal injection of pentobarbital (55 mg/kg) 24 hours before tMCAO operation, and then fixed in the stereotactic setup (RWD Life Science). The skin above the skull from the base of the neck up to in between the eyes was cut open. A hole directly above the right ventricle was made with a grinding drill to allow insertion of the micro syringe into the lateral ventricle (coordinates: 1.1 mm laterally to the right and 0.5 mm posterior of the bregma, 2.5 mm deep). CSF was collected by using the micro injection pump (speed: 0.2 μl/min), after which the syringe was withdrawn, and the skin was sutured. The mice were removed from the stereotactic setup and 50 μl blood was taken through the orbital venous plexus. Mice were then placed on 37 °C heating blanket till they regained consciousness and returned to the cage. 1 or 24 hours after tMCAO, animals were anesthetized using a 2% isoflurane-oxygen mixture. CSF and blood were collected in the same way before sacrifice. All samples were centrifuged at 3000 r/min. Total bilirubin concentration of supernatants was measured with the Bilirubin Reagent Kit (Sigma). Samples were transferred to a 96-plates and mixed with reaction solution before measurements of their absorbance were made at 530 nm 10 minutes later. UCB concentration was measured with UnaG, a bilirubin-inducible fluorescent protein from Japanese eel muscle. For standard calibration curve of fluorescence intensity, a 100 μl reaction mixture containing 50 μl UnaG solution (1 μM) and 50 μl artificial bilirubin solution with concentration gradient (1.4278 μM, 0.7139 μM, 0.3573 μM, 0.1785 μM, 0.0893 μM and 0 μM) was prepared. After 10 minutes of reaction, the fluorescence intensity was detected by microplate reader (Synergy H1M, Bio Tek) with fluorescence filters for excitation and emission wavelengths of 485 and 528 nm, respectively. Serum and CSF samples were diluted 20-fold with PBS and fluorescence intensity was measured. The UCB levels were extrapolated from the standard curve.

[8] = tested on: cortical pyramidal neurons from D1066A KI mice; test: Whole-cell current-clamp, intrinsic excitability in brain slices, D1066A KI; format: cell-based, mouse; conditions: prolonged perfusion time
[9] = tested on: layer 5 cortical pyramidal neurons from adult Trpm2−/− mice; test: Whole-cell current-clamp, intrinsic excitability in brain slices, Trpm2-/-; format: cell-based, mouse
[10] = tested on: hTRPM2 pore mutants (P983A, D987A, A1046C, N1049C); test: Whole-cell patch-clamp, pore mutants; format: cell-based, human; conditions: bilirubin
[11] = tested on: hTRPM2 Ca2+ binding site mutants; test: Whole-cell patch-clamp, Ca2+ binding site mutants; format: cell-based, human; conditions: mutations disabling binding sites for Ca2+
[12] = tested on: layer 5 cortical pyramidal neurons from adult Trpm2+/+ mice; test: Whole-cell current-clamp, intrinsic excitability in brain slices, Trpm2+/+; format: cell-based, mouse
[13] = target: T3, hTRPM2 K928A/D1069A double mutant (Homo sapiens, UniProt O94759, D1069A/K928A); test: Whole-cell patch-clamp, bilirubin-binding cavity double mutant; format: cell-based; conditions: 9 μM extracellular
T3 construct: expressed in transfected cells; host or cells: HEK293T cells, transient transfection, GFP cDNA co-transfected as a separate marker
Experimental: as §1, with “All the cells were seeded on 96-well coverslips (3 x 3 mm, WHB) and cultured at 37 °C under a humidified atmosphere containing 5% CO2.” left out
as §2

[14] = target: T4, hTRPM2 R1433A (Homo sapiens, UniProt O94759, R1433A); test: Whole-cell patch-clamp, C-terminal NUDT9-H domain mutant; format: cell-based; conditions: bilirubin
T4 construct: expressed in transfected cells; host or cells: HEK293T cells, transient transfection, GFP cDNA co-transfected as a separate marker
Experimental: as §1, with “All the cells were seeded on 96-well coverslips (3 x 3 mm, WHB) and cultured at 37 °C under a humidified atmosphere containing 5% CO2.” left out
as §2

[15] = target: T5, hTRPM2 R302A/R358A (Homo sapiens, UniProt O94759, R302A/R358A); test: Whole-cell patch-clamp, N-terminal ADPR-binding site mutant; format: cell-based; conditions: bilirubin
T5 construct: expressed in transfected cells; host or cells: HEK293T cells, transient transfection (Lipofectamine 3000), GFP cDNA co-transfected as a separate marker
Experimental: as §1, with “All the cells were seeded on 96-well coverslips (3 x 3 mm, WHB) and cultured at 37 °C under a humidified atmosphere containing 5% CO2.” left out
as §2

T1 sequence (O94759 whole entry): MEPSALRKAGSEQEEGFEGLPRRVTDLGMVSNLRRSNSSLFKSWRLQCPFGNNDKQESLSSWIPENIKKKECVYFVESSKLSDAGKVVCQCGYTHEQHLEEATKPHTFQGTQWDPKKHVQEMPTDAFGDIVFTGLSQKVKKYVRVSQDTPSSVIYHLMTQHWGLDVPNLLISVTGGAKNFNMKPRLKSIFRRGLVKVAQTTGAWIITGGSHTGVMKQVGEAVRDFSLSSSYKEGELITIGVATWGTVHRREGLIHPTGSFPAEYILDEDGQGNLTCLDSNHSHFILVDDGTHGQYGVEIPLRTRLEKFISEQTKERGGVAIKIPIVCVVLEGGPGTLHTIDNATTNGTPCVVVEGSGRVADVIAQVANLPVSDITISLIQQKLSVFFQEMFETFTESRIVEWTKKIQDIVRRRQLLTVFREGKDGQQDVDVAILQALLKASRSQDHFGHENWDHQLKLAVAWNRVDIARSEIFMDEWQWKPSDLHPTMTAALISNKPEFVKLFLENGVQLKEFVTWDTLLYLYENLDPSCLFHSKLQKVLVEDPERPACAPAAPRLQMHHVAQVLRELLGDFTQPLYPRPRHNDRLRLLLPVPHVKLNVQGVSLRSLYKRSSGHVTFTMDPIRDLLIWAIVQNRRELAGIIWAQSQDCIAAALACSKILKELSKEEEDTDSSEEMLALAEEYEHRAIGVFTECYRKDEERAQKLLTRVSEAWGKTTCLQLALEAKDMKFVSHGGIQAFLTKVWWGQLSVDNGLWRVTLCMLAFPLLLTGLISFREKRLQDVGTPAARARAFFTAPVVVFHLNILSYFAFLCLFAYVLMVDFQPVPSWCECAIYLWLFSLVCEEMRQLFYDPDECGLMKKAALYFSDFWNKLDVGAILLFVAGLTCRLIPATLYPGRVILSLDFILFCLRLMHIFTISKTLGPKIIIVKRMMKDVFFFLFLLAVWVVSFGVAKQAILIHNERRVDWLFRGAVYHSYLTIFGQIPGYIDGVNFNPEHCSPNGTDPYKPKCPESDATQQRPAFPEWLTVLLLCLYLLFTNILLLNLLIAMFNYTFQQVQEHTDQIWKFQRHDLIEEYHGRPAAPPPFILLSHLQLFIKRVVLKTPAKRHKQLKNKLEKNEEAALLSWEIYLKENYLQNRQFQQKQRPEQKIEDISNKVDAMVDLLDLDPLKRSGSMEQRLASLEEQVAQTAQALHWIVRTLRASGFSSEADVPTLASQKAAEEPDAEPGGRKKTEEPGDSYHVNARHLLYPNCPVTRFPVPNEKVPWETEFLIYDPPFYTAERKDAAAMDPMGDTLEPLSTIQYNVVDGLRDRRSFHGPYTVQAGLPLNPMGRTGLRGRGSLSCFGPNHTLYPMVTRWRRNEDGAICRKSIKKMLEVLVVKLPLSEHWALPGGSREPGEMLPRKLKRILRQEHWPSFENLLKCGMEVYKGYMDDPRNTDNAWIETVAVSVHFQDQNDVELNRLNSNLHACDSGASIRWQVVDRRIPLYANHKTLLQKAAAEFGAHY
T2 sequence (O94759 1-1449 isoform O94759-2): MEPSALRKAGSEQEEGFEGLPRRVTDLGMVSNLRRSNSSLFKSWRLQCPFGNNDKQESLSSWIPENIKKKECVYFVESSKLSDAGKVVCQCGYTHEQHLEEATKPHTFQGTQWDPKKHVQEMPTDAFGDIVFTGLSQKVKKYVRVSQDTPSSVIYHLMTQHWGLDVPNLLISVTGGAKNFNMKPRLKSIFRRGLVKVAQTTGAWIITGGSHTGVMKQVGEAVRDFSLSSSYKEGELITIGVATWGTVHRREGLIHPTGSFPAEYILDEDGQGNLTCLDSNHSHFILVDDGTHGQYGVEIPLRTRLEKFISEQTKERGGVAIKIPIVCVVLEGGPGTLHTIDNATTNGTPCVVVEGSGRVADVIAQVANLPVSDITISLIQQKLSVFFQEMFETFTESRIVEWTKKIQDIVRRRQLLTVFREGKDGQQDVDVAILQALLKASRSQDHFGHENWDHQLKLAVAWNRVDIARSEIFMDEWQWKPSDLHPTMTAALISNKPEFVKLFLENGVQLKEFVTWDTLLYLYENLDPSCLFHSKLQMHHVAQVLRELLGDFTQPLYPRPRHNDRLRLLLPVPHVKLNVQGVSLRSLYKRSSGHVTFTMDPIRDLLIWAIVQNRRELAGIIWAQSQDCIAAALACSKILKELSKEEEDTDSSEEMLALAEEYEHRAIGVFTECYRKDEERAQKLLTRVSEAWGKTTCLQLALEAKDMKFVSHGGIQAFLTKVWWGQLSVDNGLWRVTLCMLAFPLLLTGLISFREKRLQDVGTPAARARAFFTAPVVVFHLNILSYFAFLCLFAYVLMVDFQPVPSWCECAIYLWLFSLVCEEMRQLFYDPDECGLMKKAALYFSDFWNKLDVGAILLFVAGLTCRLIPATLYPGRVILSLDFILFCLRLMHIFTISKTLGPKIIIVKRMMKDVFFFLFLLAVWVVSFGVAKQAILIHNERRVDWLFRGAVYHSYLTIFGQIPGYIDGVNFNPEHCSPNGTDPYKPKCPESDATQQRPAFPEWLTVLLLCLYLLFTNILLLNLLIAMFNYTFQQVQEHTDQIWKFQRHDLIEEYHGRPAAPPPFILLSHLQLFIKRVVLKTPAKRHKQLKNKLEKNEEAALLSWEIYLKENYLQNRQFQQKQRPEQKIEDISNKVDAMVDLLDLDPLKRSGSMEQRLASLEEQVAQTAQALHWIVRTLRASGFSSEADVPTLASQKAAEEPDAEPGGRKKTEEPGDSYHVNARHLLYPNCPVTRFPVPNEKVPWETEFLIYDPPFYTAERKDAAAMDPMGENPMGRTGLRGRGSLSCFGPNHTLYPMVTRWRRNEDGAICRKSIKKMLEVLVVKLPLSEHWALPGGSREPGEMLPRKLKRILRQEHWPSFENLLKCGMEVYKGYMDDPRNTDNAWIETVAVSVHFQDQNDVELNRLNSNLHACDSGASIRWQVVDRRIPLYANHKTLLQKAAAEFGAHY
T4 sequence (O94759 whole entry R1433A): as the sequence (O94759 whole entry) above, with R1433A counted along it
T3 sequence (O94759 whole entry K928A/D1069A): as the sequence (O94759 whole entry) above, with K928A, D1069A counted along it
T5 sequence (O94759 whole entry R302A/R358A): as the sequence (O94759 whole entry) above, with R302A, R358A counted along it

O=C(O)c1ccccc1Nc1cccc(C(F)(F)F)c1 [FFA, flufenamic acid]
bilirubin-increased opening probability (Po) ([1]; FFA co-application, n = 12): reversed

C=CC1=C(C)/C(=C/c2[nH]c(Cc3[nH]c(/C=C4\NC(=O)C(C)=C4C=C)c(C)c3CCC(=O)O)c(CCC(=O)O)c2C)NC1=O [bilirubin, Bilirubin]
activation of mutant TRPM2 currents [2]: eliminated the activation of the TRPM2 channel by ADPR but not by bilirubin | infarct volume ([3]; Trpm2−/− mice, bilirubin 50 μg/g i.p. 30 min prior to 30 min tMCAO, n = 15): 25.69% ± 4.46% | infarct volume ([3]; female Trpm2−/− mice, n = 5): 30.63 ± 8.71% | infarct volume ([3]; male Trpm2−/− mice, n = 10): 23.22 ± 5.25% | single-channel currents ([1]; bilirubin 300 nM, at −40 mV, outside-out): −2.02 ± 0.05 pA | opening probability (Po) ([1]; bilirubin perfusion, n = 12): significantly increased | slope conductance (single-channel) ([1]; bilirubin-driven current-voltage relationship, −80 to +80 mV, n = 4–7): 76.29 ± 7.85 pS | mortality of cortical neurons [4]: 60.84% ± 2.13% | infarct volume ([5]; Trpm2+/+ mice, bilirubin 50 μg/g i.p. 30 min prior to 30 min tMCAO, n = 14): 55.31% ± 3.68% | severity of brain damage, Bil group vs Ctrl group ([5]; day 7 after tMCAO): significantly higher | infarct volume ([5]; female Trpm2+/+ mice, n = 4): 49.56 ± 7.40% | infarct volume ([5]; male Trpm2+/+ mice, n = 10): 57.61 ± 4.24% | magnitude of the TRPM2 currents evoked by voltage ramps ([6]; bilirubin 9 μM, −100 to +100 mV, control solution): increased | activation of TRPM2 currents ([6]; bilirubin in the presence of PJ-34 (10 μM)): remained effective | TRPM2 currents ([6]; bilirubin, intracellular ADPR 5 μM (subthreshold)): increased TRPM2 currents | TRPM2 currents ([6]; bilirubin, intracellular ADPR 500 μM (saturated)): failed to do so | activation of the TRPM2 channel ([6]; bilirubin, intracellular BAPTA 30 mM replacing EGTA): remained capable of activating | Hillslope ([6]; concentration-response fit with the Hill equation, n = 4): 1.0 | EC50 ([6]; concentration-response fit with the Hill equation, n = 4, read-out: EC50 for evoked TRPM2 currents): 1920 nM | serum and CSF UCB concentration, Bil group vs Ctrl group ([7]; D1066A KI mice, 24 h after tMCAO, n = 9): comparable | UCB concentration in serum and CSF, Bil group vs Ctrl group ([7]; Trpm2+/+ mice, 24 h after tMCAO): much higher | level of UCB, Bil group vs Ctrl group ([7]; Trpm2−/− mice, 24 h after tMCAO): did not change | TB levels in serum and CSF vs saline ([7]; mice injected with bilirubin 50 μg/g i.p., after tMCAO): markedly higher | hyperexcitability in cortical pyramidal neurons [8]: did not induce the hyperexcitability | excitability of cortical neurons ([9]; Trpm2−/− slices, bilirubin for 5 and 20 min, synaptic blockers present): absent | spike amplitude ([9]; Trpm2−/−, 20 min after bilirubin application, 2.5 nA current in 0.3 ms): significantly attenuated | activation of mutant TRPM2 currents [10]: effectively activated | activation of TRPM2 currents by bilirubin [11]: did not prevent the activation | excitability of cortical neurons ([12]; Trpm2+/+ slices, bilirubin for 5 and 20 min, synaptic blockers present): significantly increased | spike amplitude ([12]; Trpm2+/+, 20 min after bilirubin application, 2.5 nA current in 0.3 ms): significantly attenuated | activation of mutant TRPM2 currents [13]: completely lost its ability to activate | activation of mutant TRPM2 currents [14]: remained responsive | activation of mutant TRPM2 currents [15]: remained responsive
